# Measurements from US9622995B2, “Treatment of disorders associated with G protein-coupled receptor 35 (GPR35)” (TEMPLE UNIVERSITY—OF THE COMMONWEALTH SYSTEM OF HIGHER …, priority 2009, dated 2017).
# pEC50: −log10 of the molar value.
# Target: T1, GPR35a (Homo sapiens, UniProt Q9HC97, S294R)
# Test: not given
# Details: 3 μM; data not shown
# T1 sequence (Q9HC97 whole entry S294R): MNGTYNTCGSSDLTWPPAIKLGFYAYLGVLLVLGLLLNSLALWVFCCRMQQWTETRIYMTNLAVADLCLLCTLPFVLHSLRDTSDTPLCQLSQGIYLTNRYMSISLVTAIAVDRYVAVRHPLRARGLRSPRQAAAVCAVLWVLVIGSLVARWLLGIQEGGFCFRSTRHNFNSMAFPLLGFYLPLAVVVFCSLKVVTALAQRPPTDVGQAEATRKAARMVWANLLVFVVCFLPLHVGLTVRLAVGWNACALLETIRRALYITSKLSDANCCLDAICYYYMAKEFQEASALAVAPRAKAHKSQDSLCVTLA
Molecule,effect on ERK1/2 activation,effect on pamoic acid-induced ERK activation
"N#CC(=C(N)Sc1ccccc1N)C(C#N)=C(N)Sc1ccccc1N [Compound U0126, 1,4-diamino-2,3-dicyano-1,4-bis(2-aminophenylthio)-butadiene]",inhibited ERK1/2 activation,abolished pamoic acid-induced ERK activation

# Target: GPR35 (Homo sapiens, UniProt Q9HC97, S294R)
# Test: not given
# Details: UGPR35β cells
# Chain of GPR35 (Q9HC97 whole entry S294R): as above
row,Molecule,"activity in GPR35 internalization assay, in words"
1,pyrantel tartrate,inactive

# Same assay, conditions: UGPR35β cells, On-Cell Western; log(EC50)
row,Molecule,log EC50 of GPR35 internalization
1,oxantel pamoate [Compound 2],−7.772

# Same assay, conditions: read-out: EC50 of GPR35 internalization; UGPR35β cells, On-Cell Western; corresponds to the log EC50
row,Molecule,pEC50
1,oxantel pamoate [Compound 2],7.77

# Target: T1, GPR35a
# Test: β-arrestin2-GFP redistribution/aggregation in UGPR35β cells
# Assay type: cell-based
# Set-up: expressed in transfected cells
# Details: compared with the binaphthyl compounds
# Excerpt: This cellular assay utilizes the intracellular β-arrestin protein as a reporter of receptor activity. […] Upon agonist-mediated GPCR activation, β-arrestins rapidly redistribute en masse to ligand-activated plasma membrane receptors (on the other hand, β-arrestins remain in the cytosol upon antagonist binding to the receptor). Activated GPCR/β-arrestin complexes will concentrate in clathrin-coated pits and/or internal vesicles where most GPCRs normally undergo internalization. At this juncture, the β-arrestin either (i) dissociates and returns to the cytoplasm, or (ii) further redistributes with the receptor into an intracellular endosomal vesicle, depending on the receptor type. It is the agonist-induced redistribution of β-arrestin-GFP into progressively smaller compartments (cytosolic compartment>plasma membrane>coated pit>endosomal compartment) that enables imaging of receptor activation.
# This cell line is herein referred to as UGPR35β. Selected cells were maintained at 200 μg/ml G418® and 100 μg/ml Zeocin® at 37° C. and 5% CO2.
# U20S cells expressing HA-GPR35a/βarr2-GFP (also known as UGPR35β cells) were plated in a 24-well plate onto coverslips that were coated with poly-D-lysine (0.02 mg/ml; Sigma-Aldrich, St. Louis, Mo., USA) for 1 hour. Cells were maintained at 37° C., 5% CO2 until ready for experiment (90% confluent). Cells were washed once with Hanks' balanced salt solution (HBSS, Cellgro, Mediatech, Inc, Manassas, Va., USA) comprising CaCl2 0.14 g/L, KCl 0.4 g/L, KH2PO4 0.06 g/L, MgSO4 0.097 g/L, NaCl 8 g/L, Na2HPO4 0.047 g/L, NaHCO3 0.35 g/L, and D-glucose 1.0 g/L. For receptor activation, agonist-evoked redistribution of βarr2-GFP was measured by applying the drug for 40 minutes. For measuring the effects of antagonist, agonist and antagonist were co-applied.
# Cells were then fixed with 4% paraformaldehyde for 20 minutes at room temperature, followed by three washes with HBSS.
# βarr2-GFP aggregates were identified by a wavelet-based, Microsoft Windows-compatible computer program written in the MatLab programming environment. A program algorithm extracts from two dimensional images those pixels that generate objects of interest that fall within a predetermined range of sizes and intensities and that are embedded among widely varying local backgrounds (L. Barak, available from the Duke University GPCR Assay Bank). Concentration-effect curves for agonist-mediated receptor activation were analyzed by non-linear regression techniques using GraphPad Prism 4.0 software (GraphPad) and data were fitted to sigmoidal dose-response curves to obtain EC50 or IC50 values. Statistical analysis was performed using one-way analysis of variance (ANOVA) followed by Dunnett's post-test or two-tailed unpaired student t test. P values of <0.05 are considered significant.
# A prototypical U2OS osteosarcoma cell line that permanently expresses β-arrestin-GFP and N-terminal triple HA-tagged human GPR35a was used to screen ligands for agonism or antagonism against the GPR35 receptor. […] Endogenous receptors are invisible to the assay because there are too few endogenous receptors of any type compared to the number of β-arrestin molecules in the cell to provide a measurable response.
# Upon agonist-mediated GPCR activation, β-arrestins rapidly redistribute en masse to ligand-activated plasma membrane receptors, and then the activated GPCR/arrestin complexes concentrate in clathrincoated pits and/or internal vesicles.
# Concentration response curves for β-arrestin2 aggregation were obtained for compounds of interest. For this study, UGPR35β cells were treated with different concentrations of a compound of interest and images of the cells (acquired in triplicate in three or more independent experiments) were analyzed for fluorescence.
row,Molecule,"potency as GPR35 agonist, in words"
1,"O=C(O)c1cc2cc(Br)ccc2cc1O [Compound 7, 7-bromo-3-hydroxy-2-naphthoic acid]",much less potent
2,"O=C(O)c1cc2ccccc2cc1O [Compound 8, 3-hydroxy-2-naphthoic acid]",much less potent

# Same assay, conditions: concentration response analysis, read-out: β-arrestin response (EC50)
row,Molecule,pEC50
1,"O=C(O)c1cc2cc(Br)ccc2c(Cc2c(O)c(C(=O)O)cc3cc(Br)ccc23)c1O [Compound 3, 7,7′-dibromo-pamoic acid]",6.77
2,"O=C(O)c1cc2cc(Br)ccc2cc1O [Compound 7, 7-bromo-3-hydroxy-2-naphthoic acid]",5.16
3,oxantel pamoate [Compound 2],7.04
4,"O=C(O)c1cc2ccccc2c(-c2c(O)c(C(=O)O)cc3ccccc23)c1O [Compound 4, 1,1′-binaphthyl-2,2′-diol-3,3′-dicarboxylic acid]",6.54
5,"O=C(O)c1cc2ccccc2cc1O [Compound 8, 3-hydroxy-2-naphthoic acid]",4.07

# Same assay, conditions: concentrations up to 30 μM
row,Molecule,activation of GPR35 (distribution of βarr2-GFP different from basal state)
1,lysophosphatidylinositol,None of the compounds at concentrations up to 30 μM activated GPR35
2,"CCCCCCC(C)(C)c1ccc([C@@H]2C[C@H](O)CC[C@H]2CCCO)c(O)c1 [CP55,940, 2-[(1R,2R,5R)-5-hydroxy-2-(3-hydroxypropyl)cyclohexyl]-5-(2-methyloctan-2-yl)phenol]",None of the compounds at concentrations up to 30 μM activated GPR35
3,"Cc1c(C(=O)c2cccc3ccccc23)c2cccc3c2n1[C@H](CN1CCOCC1)CO3 [WIN55212-2, (R)-(+)-[2,3-dihydro-5-methyl-3-(4-morpholinylmethyl)pyrrolo[1,2,3-de)-1,4-benzoxazin-6-yl]-1-napthalenylmethanone]",None of the compounds at concentrations up to 30 μM activated GPR35
4,"CCCn1c(C)c(C(=O)c2cccc3ccccc23)c2ccccc21 [JWH-015, (2-methyl-1-propyl-1H-indol-3-yl)-1-naphthalenylmethanone]",None of the compounds at concentrations up to 30 μM activated GPR35
5,"Cc1c(/C=C/C2CCCCC2)nn(-c2ccc(Cl)cc2Cl)c1-c1ccc(Cl)cc1 [VCHSR1, 5-(4-chlorophenyl)-3-[(E)-2-cyclohexylethenyl]-1-(2,4-dichlorophenyl)-4-methyl-1H-pyrazole]",None of the compounds at concentrations up to 30 μM activated GPR35
6,"CCCCCCC(C)(C)c1cc(O)c2c(c1)OC(C)(C)[C@@H]1CC=C(CO)C[C@@H]21 [HU-210, (6aR,10aR)-9-(hydroxymethyl)-6,6-dimethyl-3-(2-methyloctan-2-yl)-6a,7,10,10a-tetrahydrobenzo[c]chromen-1-ol]",None of the compounds at concentrations up to 30 μM activated GPR35
7,"5-(4-chloro-3-methylphenyl-1-[(4-methylphenyl)methyl]-N-[(1S,2S,4R)-1,3,3-trimethylbicyclo[2.2.1]hept-2-yl]-1H-pyrazole-3-carboxamide [SR144528]",None of the compounds at concentrations up to 30 μM activated GPR35
8,CCCCCc1cc(O)c2c(c1)OC(C)(C)[C@@H]1CCC(C)=C[C@@H]21 [delta-9-tetrahydrocannabinol],None of the compounds at concentrations up to 30 μM activated GPR35
9,C=C(C)[C@@H]1CCC(C)=C[C@H]1c1c(O)cc(CCCCC)cc1O [cannabidiol],None of the compounds at concentrations up to 30 μM activated GPR35
10,lysophosphatidic acid,None of the compounds at concentrations up to 30 μM activated GPR35
11,CCCCC/C=C\C/C=C\C/C=C\C/C=C\CCCC(=O)NCCO [anandamide],None of the compounds at concentrations up to 30 μM activated GPR35
12,"Cc1c(/C=N/N2CCCCC2)nn(-c2ccc(Cl)cc2Cl)c1-c1ccc(Cl)cc1 [PIMSR1, 5-(4-chlorophenyl)-1-(2,4-dichlorophenyl)-4-methyl-3-[(E)-piperidinoiminomethyl]-1H-pyrazole]",None of the compounds at concentrations up to 30 μM activated GPR35
13,"CCCCCCC(C)(C)c1cc(O)c2c(c1)OC(C)(C)C1CCC(C)CC21 (stereo not shown) [AM4056, 1-hydroxy-1′,1′-dimethylheptylhexahydrocannabinol]",None of the compounds at concentrations up to 30 μM activated GPR35
14,CCCCCc1cc(O)c2c(c1)OC(C)(C)c1ccc(C)cc1-2 [cannabinol],None of the compounds at concentrations up to 30 μM activated GPR35
15,"C=C(C)[C@@H]1CCC(C)=C[C@H]1c1c(C)cc(O)cc1O [Compound O-1602, 5-methyl-4-[(1R,6R)-3-methyl-6-(1-methyethenyl)-2-cyclohexen-1-yl]-1,3-benzenediol]",None of the compounds at concentrations up to 30 μM activated GPR35

# Same assay, conditions: mean (95% confidence interval in brackets in the text), read-out: EC50 for β-arrestin2 aggregation
row,Molecule,pEC50
1,"O=C(O)c1cc([N+](=O)[O-])ccc1NCCCc1ccccc1 [Compound 6, 5-Nitro-2-(3-phenylpropylamino)-benzoic acid]",5.37
